Assay results published in patent US20260215423A1, “NOVEL CARBOXAMIDE AND SULFONAMIDE PESTICIDAL COMPOUNDS” (SYNGENTA CROP PROTECTION AG, priority 2023, published 2026).

Key:
Assay type in all cases: in vivo
[1] = tested on: Myzus persicae (Green Peach Aphid); test: Myzus persicae (Green Peach Aphid): Feeding/Contact Activity, sunflower leaf discs; settings: foliar, 144 h, application rate of 200 ppm, sunflower leaf discs sprayed, aphid population of mixed ages, 6 days after infestation
Description: Example B6: Myzus persicae (Green Peach Aphid):Feeding/Contact Activity
Sunflower leaf discs were placed onto agar in a 24-well microtiter plate and sprayed with aqueous test solutions prepared from 10′000 ppm DMSO stock solutions. After drying, the leaf discs were infested with an aphid population of mixed ages. The samples were assessed for mortality 6 days after infestation.

[2] = tested on: Myzus persicae (Green Peach Aphid); test: Myzus persicae (Green Peach Aphid). Intrinsic Activity; settings: 120 h, test rate of 12 ppm, mixed with sucrose solution, feeding through Parafilm, 5 days after infestation
Excerpt: Example B7: Myzus persicae (Green Peach Aphid). Intrinsic Activity
Test compounds prepared from 10′000 ppm DMSO stock solutions were applied by pipette into 24-well microtiter plates and mixed with sucrose solution. The plates were closed with a stretched Parafilm. A plastic stencil with 24 holes was placed onto the plate and infested pea seedlings were placed directly on the Parafilm. The infested plate was closed with a gel blotting paper and another plastic stencil and then turned upside down. The samples were assessed for mortality 5 days after infestation.

[3] = tested on: Tetranychus urticae (Two-Spotted Spider Mite); test: Tetranychus urticae (Two-Spotted Spider Mite): Feeding/Contact Activity; settings: foliar, 192 h, application rate of 200 ppm, bean leaf discs sprayed, mite population of mixed ages (mobile stages), 8 days after infestation
Description: Example B11: Tetranychus urticae (Two-Spotted Spider Mite):Feeding/Contact Activity
Bean leaf discs on agar in 24-well microtiter plates were sprayed with aqueous test solutions prepared from 10,000 ppm DMSO stock solutions. After drying the leaf discs were infested with a mite population of mixed ages. The samples were assessed for mortality on mixed population (mobile stages) 8 days after infestation.

[4] = tested on: Plutella xylostella (Diamond back moth); test: Plutella xylostella (Diamond back moth); settings: 192 h, application rate of 200 ppm, artificial diet treated by pipetting, Plutella eggs, 8 days after infestation, read-out: effect in at least one of the two categories (mortality or growth inhibition)
Description: After drying, Plutella eggs were pipetted through a plastic stencil onto a gel blotting paper and the plate was closed with it. The samples were assessed for mortality and growth inhibition in comparison to untreated samples 8 days after infestation.

[5] = tested on: Myzus persicae (Green Peach Aphid); test: Myzus persicae (Green Peach Aphid) Feeding/Contact Activity, eggplant leaf discs; settings: foliar, 144 h, application rate of 200 ppm, eggplant leaf discs sprayed, aphid population of mixed ages, 6 days after infestation, read-out: growth inhibition
Excerpt: Example B8: Myzus persicae (Green Peach Aphid) Feeding/Contact Activity Eggplant leaf discs were placed onto agar in a 24-well microtiter plate and sprayed with aqueous test solutions prepared from 10′000 ppm DMSO stock solutions. After drying, the leaf discs were infested with an aphid population of mixed ages. […]

[6] = tested on: Frankliniella occidentalis (Western Flower Thrips); test: Frankliniella occidentalis (Western Flower Thrips): Feeding/Contact Activity, sunflower leaf discs; settings: foliar, 168 h, application rate of 200 ppm, sunflower leaf discs sprayed, population of mixed ages, 7 days after infestation
Description: Example B4: Frankliniella occidentalis (Western Flower Thrips):Feeding/Contact Activity
(§1) Sunflower leaf discs were placed on agar in 24-well microtiter plates and sprayed with aqueous test solutions prepared from […] stock solutions. After drying the leaf discs were infested with a Frankliniella population of mixed ages. The samples were assessed for mortality 7 days after infestation.

[7] = tested on: Euschistus heros (Neotropical Brown Stink Bug); test: Euschistus heros (Neotropical Brown Stink Bug); settings: 120 h, application rate of 200 ppm, soybean leaves sprayed, N2 nymphs, 5 days after infestation, read-out: effect in at least one of the two categories (mortality or growth inhibition)
Description: Example B3: Euschistus heros (Neotropical Brown Stink Bug)
Soybean leaves on agar in 24-well microtiter plates were sprayed with aqueous test solutions prepared from 10′000 ppm DMSO stock solutions. After drying the leaves were infested with N2 nymphs. The samples were assessed for mortality and growth inhibition in comparison to untreated samples 5 days after infestation.

[8] = tested on: Bemisia tabaci (Cotton White Fly); test: Bemisia tabaci (Cotton White Fly): Feeding/Contact Activity; settings: foliar, 144 h, application rate of 200 ppm, cotton leaf discs sprayed, adult white flies, 6 days after incubation
Description: Example B1: Bemisia tabaci (Cotton White Fly): Feeding/Contact Activity
Cotton leaf discs were placed on agar in 24-well microtiter plates and sprayed with aqueous test solutions prepared from 10′000 ppm DMSO stock solutions. After drying the leaf discs were infested with adult white flies. The samples were checked for mortality 6 days after incubation.

[9] = tested on: Diabrotica balteata (Corn root worm); test: Diabrotica balteata (Corn root worm); settings: 96 h, application rate of 200 ppm, maize sprouts sprayed, L2 larvae, 4 days after infestation, read-out: effect in at least one of the two categories (mortality or growth inhibition)
Description: Example B2: Diabrotica balteata (Corn root worm)
Maize sprouts placed onto an agar layer in 24-well microtiter plates were treated with aqueous test solutions prepared from 10′000 ppm DMSO stock solutions by spraying. After drying, the plates were infested with L2 larvae (6 to 10 per well). The samples were assessed for mortality and growth inhibition in comparison to untreated samples 4 days after infestation.

[10] = tested on: Spodoptera littoralis (Egyptian Cotton Leaf Worm); test: Spodoptera littoralis (Egyptian Cotton Leaf Worm); settings: foliar, 72 h, application rate of 200 ppm, cotton leaf discs sprayed, five L1 larvae, 3 days after infestation, read-out: control (mortality, anti-feeding effect, growth inhibition)
Description: Example B10: Spodoptera littoralis (Egyptian Cotton Leaf Worm)
Cotton leaf discs were placed onto agar in 24-well microtiter plates and sprayed with aqueous test solutions prepared from 10′000 ppm DMSO stock solutions. After drying the leaf discs were infested with five L1 larvae. The samples were assessed for mortality, anti-feeding effect, and growth inhibition in comparison to untreated samples 3 days after infestation. Control of Spodoptera littoralis by a test sample is given when at least one of the categories mortality, anti-feedant effect, and growth inhibition is higher than the untreated sample.

[11] = tested on: Frankliniella occidentalis (Western Flower Thrips); test: Frankliniella occidentalis (Western Flower Thrips) Feeding/Contact Activity, bean leaf discs; settings: foliar, 96 h, application rate of 200 ppm, bean leaf discs sprayed, population of mixed ages, 4 days after infestation, read-out: growth inhibition
Description: as §1, with “Example B5: Frankliniella occidentalis (Western Flower Thrips) Feeding/Contact Activity Bean” for “Sunflower”, “4” for “7”

CCC(=O)NCc1cc(OC[C@H](C)NS(=O)(=O)C(F)(F)F)cnc1Cl [P-1]
≥ 80%: mortality at 200 ppm [1] | mortality at 12 ppm [2]

C[C@@H](COc1ccc(Cl)c(CNC(=O)C2CC2)c1)NS(=O)(=O)C(F)(F)F [P-2]
≥ 80%: mortality at 200 ppm [3] | percent effect (mortality or growth inhibition) at 200 ppm [4] | mortality at 200 ppm [1] | inhibition at 200 ppm [5] | mortality at 12 ppm [2]

CCC(=O)NCc1cc(OC[C@H](C)N(COC)S(=O)(=O)C(F)(F)F)ccc1Cl [P-3, N-[[2-chloro-5-[(2S)-2-[methoxymethyl(tri-fluoromethylsulfonyl)-amino]propoxy]phenyl]methyl]propanamide]
≥ 80%: mortality at 200 ppm [3] | percent effect (mortality or growth inhibition) at 200 ppm [4] | mortality at 200 ppm [1] | mortality at 200 ppm [6] | inhibition at 200 ppm [5] | percent effect (mortality or growth inhibition) at 200 ppm [7] | mortality at 12 ppm [2] | mortality at 200 ppm [8] | percent effect (mortality or growth inhibition) at 200 ppm [9]

CCC(=O)NCc1cc(OC[C@H](C)NS(=O)(=O)C(F)(F)F)ccc1Cl [P-4]
≥ 80%: mortality at 200 ppm [3] | percent effect (mortality or growth inhibition) at 200 ppm [4] | mortality at 200 ppm [1] | mortality at 200 ppm [6] | inhibition at 200 ppm [5] | percent effect (mortality or growth inhibition) at 200 ppm [7] | mortality at 12 ppm [2] | percent effect (mortality or growth inhibition) at 200 ppm [9]

CCC(=O)NCc1cc(OC[C@H](C)N(COC)S(=O)(=O)C(F)(F)F)cnc1Cl [P-5, N-[[2-chloro-5-[(2S)-2-[methoxymethyl(tri-fluoromethylsulfonyl)-amino]propoxy]-3-pyridyl]methyl]propan-amide]
≥ 80%: mortality at 200 ppm [1] | inhibition at 200 ppm [5] | mortality at 12 ppm [2]

CCC(=O)NC(C)(C)c1cc(OC[C@H](C)NS(=O)(=O)C(F)(F)F)ccc1Cl [P-15, N-[1-[2-chloro-5-[(2S)-2-(trifluoromethylsul-fonylamino)propoxy]phenyl]-1-methylethyl] propanamide]
≥ 80%: mortality at 200 ppm [3]

CCC(=O)NCc1cc(OC[C@H](C)N(C(=O)CC)S(=O)(=O)C(F)(F)F)ccc1Cl [P-18, N-[[2-chloro-5-[(2S)-2-[propanoyl(trifluoro-methylsulfonyl)amino]propoxy]phenyl]methyl] propanamide]
≥ 80%: mortality at 200 ppm [3] | mortality at 200 ppm [10] | percent effect (mortality or growth inhibition) at 200 ppm [4] | inhibition at 200 ppm [5] | inhibition at 200 ppm [11] | percent effect (mortality or growth inhibition) at 200 ppm [7] | mortality at 12 ppm [2] | percent effect (mortality or growth inhibition) at 200 ppm [9]

C[C@@H](COc1cnc(Cl)c(CNC(=O)C2CCC2(F)F)c1)NS(=O)(=O)C(F)(F)F (stereo partly shown) [P-22]
≥ 80%: inhibition at 200 ppm [11]

C[C@@H](COc1cnc(Cl)c(CNC(=O)C2CCC2)c1)NS(=O)(=O)C(F)(F)F [P-24]
≥ 80%: inhibition at 200 ppm [5] | inhibition at 200 ppm [11] | mortality at 12 ppm [2]

C[C@@H](COc1cnc(Cl)c(CNC(=O)C23CC(C(F)(F)F)(C2)C3)c1)NS(=O)(=O)C(F)(F)F [P-25, N-[[2-chloro-5-[(2S)-2-(trifluoromethylsulfon-ylamino)propoxy]-3-pyridyl]methyl]-3-(tri-fluoromethyl)bicyclo [1.1.1]pentane-1-carbox-amide]
≥ 80%: inhibition at 200 ppm [11]

C[C@@H](COc1cnc(Cl)c(CNC(=O)C2CC(F)(F)C2)c1)NS(=O)(=O)C(F)(F)F [P-35, N-[[2-chloro-5-[(2S)-2-(trifluoromethylsul-fonylamino)propoxy]-3-pyridyl]methyl]-3,3-difluoro-cyclobutane-carboxamide]
≥ 80%: inhibition at 200 ppm [5] | inhibition at 200 ppm [11]
